Measured values as given in patent publication US20050137185A1, “Combinations of drugs for the treatment of neoplasms” (priority 2003, published 2005).
Where two headings read alike, the source gives them in different places.

Tested on: HCT116 cells
Assay: Anti-proliferation assay (Alamar Blue metabolism)
Format: cell-based
Conditions: Homo sapiens, read-out: Percent inhibition of Alamar Blue Metabolism in HCT116 cells; for inhibition at 5 µM: HCT-116, chlorpromazine 5 μM; for inhibition at 10 µM: HCT-116, chlorpromazine 10 μM; for inhibition at 40 µM: HCT-116, chlorpromazine 40 μM
Protocol: Stock solutions (1000×) of each compound were prepared in DMSO and stored at −20° C. Master stock plates of 2-fold or 4-fold serial dilutions of individual compounds were prepared in 384-well plates. Combination matrices of test compounds were generated from these master stock plates by dilution into growth media described above. […] The combination matrices were used immediately and discarded.
The anti-proliferation assays were performed in 384-well plates. […] Cells were diluted in culture media such that 1500 cells were delivered in 40 μL of media into each assay well. […] 10× stock solutions (4.5 μL) from the combination matrices were added to 40 μL of culture media in assay wells. Assay plates were incubated for 72-80 hours at 37±0.5° C. with 5% CO2. […] Alamar Blue metabolism was quantified by the amount of fluorescence intensity 3.5-5.0 hours after addition. Quantification, using an LJL Analyst AD reader (LJL Biosystems), was taken in the middle of the well with high attenuation, a 100 msec read time, an excitation filter at 530 nm, and an emission filter at 575 nm. For some experiments, quantification was performed using a Wallac Victor^2 reader. Measurements were taken at the top of the well with stabilized energy lamp control; a 100 msec read time, an excitation filter at 530 nm, and an emission filter at 590 nm.

For CCC1=C[C@@H]2CN(C1)Cc1c([nH]c3ccccc13)[C@@](C(=O)OC)(c1cc3c(cc1OC)N(C)[C@H]1[C@@](O)(C(=O)OC)[C@H](OC(C)=O)[C@]4(CC)C=CCN5CC[C@]31[C@@H]54)C2 [Vinorelbine, vinorelbine], the inhibition at 0.004 µM (HCT-116, chlorpromazine 0 μM, vinorelbine 0.004 μM) was -8.91% and the inhibition at 0.008 µM (HCT-116, chlorpromazine 0 μM, vinorelbine 0.008 μM) was 42.1%.

In the case of CN(C)CCCN1c2ccccc2Sc2ccc(Cl)cc21 [Chlorpromazine, chlorpromazine], the inhibition at 7 µM (HCT-116, 72 h, chlorpromazine 7 μM, tyrphostin 1486 0 μM) is reported as -18.6%, the inhibition at 14 µM (HCT-116, 72 h, chlorpromazine 14 μM, tyrphostin 1486 0 μM) is reported as -12.5% and the inhibition at 28 µM (HCT-116, 72 h, chlorpromazine 28 μM, tyrphostin 1486 0 μM) is reported as 62.2%. It also gave an inhibition at 56 µM (HCT-116, 72 h, chlorpromazine 56 μM, tyrphostin 1486 0 μM) of 85.6%, an inhibition at […] (HCT-116, 72 h, chlorpromazine […], tyrphostin 1486 0 μM) of 95.9% and an inhibition at 5 µM (dacarbazine 0 μM) of 17%. The inhibition at 5 µM (docetaxel 0 μM) was 2.8%, the inhibition at 5 µM (floxuridine 0 μM) was 3.53% and the inhibition at 5 µM (hydroxycamptothecin 0 μM) was 24%. For the same compound, the inhibition at 5 µM (leucovorin 0 μM) was -4.39%, the inhibition at 5 µM (paclitaxel 0 μM) was -11.8% and the inhibition at 5 µM (vinblastine 0 μM) was -20%. It also gave an inhibition at 5 µM (vinorelbine 0 μM) of -20%, an inhibition at 10 µM (dacarbazine 0 μM) of 54.6% and an inhibition at 10 µM (docetaxel 0 μM) of 84.8%. It also gave an inhibition at 10 µM (floxuridine 0 μM) of 65.4%, an inhibition at 10 µM (hydroxycamptothecin 0 μM) of 84% and an inhibition at 10 µM (leucovorin 0 μM) of 3.27%. It also gave an inhibition at 10 µM (paclitaxel 0 μM) of 56.2%, an inhibition at 10 µM (vinblastine 0 μM) of 50.8% and an inhibition at 10 µM (vinorelbine 0 μM) of 60%. For the same compound, the inhibition at 20 µM (HCT-116, chlorpromazine 20 μM, docetaxel 0 μM) was 91.9%, the inhibition at 20 µM (HCT-116, chlorpromazine 20 μM, floxuridine 0 μM) was 88.5% and the inhibition at 20 µM (HCT-116, chlorpromazine 20 μM, hydroxycamptothecin 0 μM) was 88.2%. For the same compound, the inhibition at 20 µM (HCT-116, chlorpromazine 20 μM, leucovorin 0 μM) was 80.9%, the inhibition at 20 µM (HCT-116, chlorpromazine 20 μM, paclitaxel 0 μM) was 87% and the inhibition at 20 µM (HCT-116, chlorpromazine 20 μM, vinblastine 0 μM) was 85.8%. For the same compound, the inhibition at 20 µM (HCT-116, chlorpromazine 20 μM, vinorelbine 0 μM) was 88.4%, the inhibition at 40 µM (dacarbazine 0 μM) was 95.8% and the inhibition at 40 µM (docetaxel 0 μM) was 95.7%. The inhibition at 40 µM (floxuridine 0 μM) was 95.7%, the inhibition at 40 µM (hydroxycamptothecin 0 μM) was 95.8% and the inhibition at 40 µM (leucovorin 0 μM) was 95.6%. For the same compound, the inhibition at 40 µM (paclitaxel 0 μM) was 95.7%, the inhibition at 40 µM (vinblastine 0 μM) was 94.5% and the inhibition at 40 µM (vinorelbine 0 μM) was 94.7%. It also gave an inhibition at […] (HCT-116, chlorpromazine […], dacarbazine 0 μM) of 4.03%, an inhibition at […] (HCT-116, chlorpromazine […], docetaxel 0 μM) of -12.2% and an inhibition at […] (HCT-116, chlorpromazine […], floxuridine 0 μM) of -0.0804%. The inhibition at […] (HCT-116, chlorpromazine […], hydroxycamptothecin 0 μM) was -8.14%, the inhibition at […] (HCT-116, chlorpromazine […], leucovorin 0 μM) was -0.0253% and the inhibition at […] (HCT-116, chlorpromazine […], paclitaxel 0 μM) was 10.1%. The inhibition at […] (HCT-116, chlorpromazine […], vinblastine 0 μM) was -20% and the inhibition at […] (HCT-116, chlorpromazine […], vinorelbine 0 μM) was -0.591%.

Work on COc1cc2ncnc(Nc3cccc(Cl)c3)c2cc1OC [Tyrphostin 1486, Tyrphostin AG1478] yielded an inhibition at 13 µM (HCT-116, chlorpromazine 0 μM, tyrphostin 1486 13 μM) of 78.7%, an inhibition at 26 µM (HCT-116, chlorpromazine 0 μM, tyrphostin 1486 26 μM) of 81.4% and an inhibition at 51 µM (HCT-116, chlorpromazine 0 μM, tyrphostin 1486 51 μM) of 81.3%.

In the case of Nc1nc2c(c(=O)[nH]1)N(C=O)C(CNc1ccc(C(=O)N[C@@H](CCC(=O)O)C(=O)O)cc1)CN2 (some centres unmarked) [Leucovorin, leucovorin], the inhibition at 20 µM (HCT-116, chlorpromazine 0 μM, leucovorin 20 μM) is reported as -11.5%.

Work on CN(C)/N=N/c1[nH]cnc1C(N)=O [Dacarbazine, dacarbazine] yielded an inhibition at 14 µM (HCT-116, chlorpromazine 0 μM, dacarbazine 14 μM) of 42.6%, an inhibition at 27 µM (HCT-116, chlorpromazine 0 μM, dacarbazine 27 μM) of 64.6% and an inhibition at 55 µM (HCT-116, chlorpromazine 0 μM, dacarbazine 55 μM) of 74.2%.
